From patent US11053204B2, “Pyrimidinyloxy benzene derivatives as herbicides” (FMC Corporation, priority 2015, dated 2021)

Key:
Assay type in all cases: in vivo
[1] = system: Italian ryegrass (Lolium multiflorum); test: Test A postemergence, visual injury rating; details: 0 is no effect, 100 is complete control
Summary of the method: (§1)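 Pre- and postemergence greenhouse screen. Soil: loam + sand. Spray carrier: solvent mixture, non-phytotoxic, with surfactant. Post timing at 1–2 leaves, height 2–10 cm. Readout: visual injury on a 0–100 scale roughly 10 days after application, untreated plants as reference.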

[2] = system: barnyardgrass (Echinochloa crus-galli); test: Test A postemergence, visual injury rating; details: 0 is no effect, 100 is complete control
Summary of the method: as §1

[3] = system: blackgrass (Alopecurus myosuroides); test: Test A postemergence, visual injury rating; details: 0 is no effect, 100 is complete control
Summary of the method: as §1

corn (Zea mays) = test: Test A postemergence, visual injury rating; details: 0 is no effect, 100 is complete control
Summary of the method: as §1

[4] = system: galium (catchweed bedstraw, Galium aparine); test: Test A postemergence, visual injury rating; details: 0 is no effect, 100 is complete control
Summary of the method: as §1

[5] = system: giant foxtail (Setaria faberii); test: Test A postemergence, visual injury rating; details: 0 is no effect, 100 is complete control
Summary of the method: as §1

kochia (Kochia scoparia) = test: Test A postemergence, visual injury rating; details: 0 is no effect, 100 is complete control
Summary of the method: as §1

[6] = system: pigweed (Amaranthus retroflexus); test: Test A postemergence, visual injury rating; details: 0 is no effect, 100 is complete control
Summary of the method: as §1

[7] = system: ragweed (common ragweed, Ambrosia elatior); test: Test A postemergence, visual injury rating; details: 0 is no effect, 100 is complete control
Summary of the method: as §1

[8] = system: wheat (Triticum aestivum); test: Test A postemergence, visual injury rating; details: 0 is no effect, 100 is complete control
Summary of the method: as §1

[9] = system: barnyardgrass (Echinochloa crus-galli); test: Test B flooded paddy test, plant response rating; details: 250 g ai/ha; Flood; scale of 0 to 100 where 0 is no effect and 100 is complete control; 13 to 15 days
Summary of the method: (§2)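 Greenhouse pots flooded to 3 cm above soil at time of treatment received compound via the water, which stayed at that level.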

[10] = system: ducksalad (Heteranthera limosa); test: Test B flooded paddy test, plant response rating; details: 250 g ai/ha; Flood; scale of 0 to 100 where 0 is no effect and 100 is complete control; 13 to 15 days
Summary of the method: as §2

rice (Oryza sativa) = test: Test B flooded paddy test, plant response rating; details: 250 g ai/ha; Flood; scale of 0 to 100 where 0 is no effect and 100 is complete control; 13 to 15 days
Summary of the method: as §2

[11] = system: sedge, umbrella (small-flower umbrella sedge, Cyperus difformis); test: Test B flooded paddy test, plant response rating; details: 250 g ai/ha; Flood; scale of 0 to 100 where 0 is no effect and 100 is complete control; 13 to 15 days
Summary of the method: as §2

[12] = system: johnsongrass (Sorghum halepense); test: Test C postemergence, plant response rating; details: for Plant response rating, Johnsongrass: scale 0 to 100; for Johnsongrass plant response rating: scale 0 to 100 (0 no effect, 100 complete control)
Summary of the method: (§3)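 Greenhouse plants rated visually against untreated controls 13–15 d after treatment, scale 0 = no effect to 100 = complete control. Postemergence sprays went onto potted plants 2–18 cm tall (1–4 leaves); preemergence sprays onto soil freshly sown in loam–sand or silt loam, chemicals formulated in non-phytotoxic solvent with surfactant.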

[13] = system: pigweed (Amaranthus retroflexus); test: Test C postemergence, plant response rating; details: for Plant response rating, Pigweed: scale 0 to 100; for Pigweed plant response rating: scale 0 to 100 (0 no effect, 100 complete control)
Summary of the method: as §3

Compound	Ryegrass, Italian plant response rating (0 to 100 scale) ([1]; 125 g ai/ha)	Ryegrass, Italian plant response rating (0 to 100 scale) ([1]; 500 g ai/ha)	Barnyardgrass plant response rating (0 to 100 scale) ([2]; 125 g ai/ha)	Barnyardgrass plant response rating (0 to 100 scale) ([2]; 500 g ai/ha)	Blackgrass plant response rating (0 to 100 scale) ([3]; 125 g ai/ha)	Blackgrass plant response rating (0 to 100 scale) ([3]; 500 g ai/ha)	Corn plant response rating (0 to 100 scale) (corn (Zea mays); 125 g ai/ha)	Corn plant response rating (0 to 100 scale) (corn (Zea mays); 500 g ai/ha)	Galium plant response rating (0 to 100 scale) ([4]; 125 g ai/ha)	Galium plant response rating (0 to 100 scale) ([4]; 500 g ai/ha)	Foxtail, Giant plant response rating (0 to 100 scale) ([5]; 125 g ai/ha)	Foxtail, Giant plant response rating (0 to 100 scale) ([5]; 500 g ai/ha)	Kochia plant response rating (0 to 100 scale) (kochia (Kochia scoparia); 125 g ai/ha)	Kochia plant response rating (0 to 100 scale) (kochia (Kochia scoparia); 500 g ai/ha)	Pigweed plant response rating (0 to 100 scale) ([6]; 125 g ai/ha)	Pigweed plant response rating (0 to 100 scale) ([6]; 500 g ai/ha)	Ragweed plant response rating (0 to 100 scale) ([7]; 125 g ai/ha)	Ragweed plant response rating (0 to 100 scale) ([7]; 500 g ai/ha)	Wheat plant response rating (0 to 100 scale) ([8]; 125 g ai/ha)	Wheat plant response rating (0 to 100 scale) ([8]; 500 g ai/ha)	further results
O=C(OCCC(F)(F)F)c1c(Br)cccc1Oc1ncc(Br)cn1 [Compound 33]	30	80	80	100	60	90	30	90	100	100	100	100	100	100	100	100	30	40	20	60	Plant response rating, Barnyardgrass [9]: 0; Plant response rating, Ducksalad [10]: 80; Plant response rating, Rice (rice (Oryza sativa)): 0; Plant response rating, Sedge, Umbrella [11]: 95; Plant response rating, Johnsongrass ([12]; 16 g ai/ha): 10; Plant response rating, Johnsongrass ([12]; 31 g ai/ha): 10; Johnsongrass plant response rating ([12]; 62 g ai/ha): 20; Johnsongrass plant response rating ([12]; 125 g ai/ha): 20; Plant response rating, Pigweed ([13]; 16 g ai/ha): 95; Plant response rating, Pigweed ([13]; 31 g ai/ha): 95; Pigweed plant response rating ([13]; 62 g ai/ha): 98; Pigweed plant response rating ([13]; 125 g ai/ha): 100
O=C(OCC(F)(F)F)c1c(Br)cccc1Oc1ncc(Cl)cn1 [Compound 35]	0	40	10	80	40	80	20	30	60	100	40	100	90	100	100	100	0	0	0	20	Plant response rating, Barnyardgrass [9]: 0; Plant response rating, Ducksalad [10]: 50; Plant response rating, Rice (rice (Oryza sativa)): 0; Plant response rating, Sedge, Umbrella [11]: 60; Plant response rating, Johnsongrass ([12]; 16 g ai/ha): 0; Plant response rating, Johnsongrass ([12]; 31 g ai/ha): 5; Johnsongrass plant response rating ([12]; 62 g ai/ha): 10; Johnsongrass plant response rating ([12]; 125 g ai/ha): 10; Plant response rating, Pigweed ([13]; 16 g ai/ha): 80; Plant response rating, Pigweed ([13]; 31 g ai/ha): 70; Pigweed plant response rating ([13]; 62 g ai/ha): 90; Pigweed plant response rating ([13]; 125 g ai/ha): 98
